How the values were obtained:
Experiment in all cases: cells
Details in all cases: Homo sapiens
[1] = system: UACC-257; assay type: functional, cell-based
Description: SANGER: Inhibition of human UACC-257 cell growth in a cell viability assay.

[2] = system: SK-PN-DW; assay type: functional, cell-based;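 further: growth inhibition measured with a viability assay on these cells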
Description: SANGER: Inhibition of human SK-PN-DW cell growth in a cell viability assay.

[3] = system: CAS-1; assay type: functional, cell-based;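 further: growth inhibition of CAS-1 cells, measured with a cell viability assay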
Description: SANGER: Inhibition of human CAS-1 cell growth in a cell viability assay.

[4] = system: MHH-NB-11; assay type: functional, cell-based;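 further: growth inhibition of human MHH-NB-11 cells, read out by a cell viability assay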
Description: SANGER: Inhibition of human MHH-NB-11 cell growth in a cell viability assay.

[5] = system: LAMA-84; assay type: functional, cell-based;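 further: growth inhibition of LAMA-84 cells, read out with a cell viability assay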
Description: SANGER: Inhibition of human LAMA-84 cell growth in a cell viability assay.

[6] = system: SNU-5; assay type: functional, cell-based;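 further: cell viability readout used to measure growth inhibition in human NCI-SNU-5 cells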
Description: SANGER: Inhibition of human NCI-SNU-5 cell growth in a cell viability assay.

[7] = system: NB69; assay type: functional, cell-based;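 further: growth inhibition of NB69 cells, determined by a cell viability assay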
Description: SANGER: Inhibition of human NB69 cell growth in a cell viability assay.

[8] = system: MEG-01; assay type: functional, cell-based;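 further: growth inhibition of MEG-01 cells, read out by a cell viability assay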
Description: SANGER: Inhibition of human MEG-01 cell growth in a cell viability assay.

[9] = system: ONS-76; assay type: functional, cell-based;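 further: growth inhibition of human ONS-76 cells, read out with a cell viability assay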
Description: SANGER: Inhibition of human ONS-76 cell growth in a cell viability assay.

[10] = system: NCI-H747; assay type: functional, cell-based;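 further: growth inhibition of human NCI-H747 cells, read out by a cell viability assay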
Description: SANGER: Inhibition of human NCI-H747 cell growth in a cell viability assay.

[11] = system: HCC1187; assay type: functional, cell-based;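 further: growth inhibition of HCC1187 cells, read out with a cell viability assay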
Description: SANGER: Inhibition of human HCC1187 cell growth in a cell viability assay.

[12] = system: TE-6; assay type: functional, cell-based;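 further: growth inhibition of TE-6 cells, read out with a cell viability assay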
Description: SANGER: Inhibition of human TE-6 cell growth in a cell viability assay.

[13] = system: NH-12; assay type: functional, cell-based;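 further: growth inhibition of NH-12 cells, read out with a cell viability assay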
Description: SANGER: Inhibition of human NH-12 cell growth in a cell viability assay.

[14] = system: L-428; assay type: functional, cell-based
Description: SANGER: Inhibition of human L-428 cell growth in a cell viability assay.

[15] = system: TE-10; assay type: functional, cell-based;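 further: growth inhibition of TE-10 cells, measured by a cell viability assay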
Description: SANGER: Inhibition of human TE-10 cell growth in a cell viability assay.

[16] = system: A388; assay type: functional, cell-based;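 further: growth inhibition of human A388 cells, read out with a cell viability assay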
Description: SANGER: Inhibition of human A388 cell growth in a cell viability assay.

[17] = system: LU-134-A; assay type: functional, cell-based
Description: SANGER: Inhibition of human LU-134-A cell growth in a cell viability assay.

[18] = system: EW-16; assay type: functional, cell-based;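 further: growth inhibition of human EW-16 cells, read out as cell viability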
Description: SANGER: Inhibition of human EW-16 cell growth in a cell viability assay.

[19] = system: ES4; assay type: functional, cell-based;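 further: growth inhibition of human ES4 cells, read out by a cell viability assay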
Description: SANGER: Inhibition of human ES4 cell growth in a cell viability assay.

[20] = system: Becker; assay type: functional, cell-based;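 further: growth inhibition of Becker cells, read out with a cell viability assay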
Description: SANGER: Inhibition of human Becker cell growth in a cell viability assay.

[21] = system: MOLT-16; assay type: functional, cell-based;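 further: growth inhibition of human MOLT-16 cells, read out with a cell viability assay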
Description: SANGER: Inhibition of human MOLT-16 cell growth in a cell viability assay.

[22] = system: HL-60; assay type: functional, cell-based;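 further: growth inhibition of human HL-60 cells, read out with a cell viability assay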
Description: SANGER: Inhibition of human HL-60 cell growth in a cell viability assay.

[23] = system: GI-ME-N; assay type: functional, cell-based;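 further: growth inhibition of human GI-ME-N cells, read out with a cell viability assay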
Description: SANGER: Inhibition of human GI-ME-N cell growth in a cell viability assay.

[24] = system: HT-144; assay type: functional, cell-based
Description: SANGER: Inhibition of human HT-144 cell growth in a cell viability assay.

[25] = system: Ramos-2G6-4C10; assay type: functional, cell-based;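 further: growth inhibition of the cell line, measured by a cell viability read-out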
Description: SANGER: Inhibition of human Ramos-2G6-4C10 cell growth in a cell viability assay.

[26] = system: NCI-H209; assay type: functional, cell-based;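 further: growth inhibition of human NCI-H209 cells, measured by a cell viability assay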
Description: SANGER: Inhibition of human NCI-H209 cell growth in a cell viability assay.

[27] = system: KMOE-2; assay type: functional, cell-based;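 further: growth inhibition of human KMOE-2 cells, read out with a cell viability assay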
Description: SANGER: Inhibition of human KMOE-2 cell growth in a cell viability assay.

[28] = system: KLE; assay type: functional, cell-based;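 further: growth inhibition of human KLE cells, read out with a cell viability assay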
Description: SANGER: Inhibition of human KLE cell growth in a cell viability assay.

[29] = system: MC116; assay type: functional, cell-based;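 further: growth inhibition of MC116 cells, read out with a cell viability assay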
Description: SANGER: Inhibition of human MC116 cell growth in a cell viability assay.

[30] = system: TGBC24TKB; assay type: functional, cell-based;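 further: growth inhibition of human TGBC24TKB cells, read out with a cell viability assay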
Description: SANGER: Inhibition of human TGBC24TKB cell growth in a cell viability assay.

[31] = system: NB10; assay type: functional, cell-based;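 further: growth inhibition of NB10 cells, read out by a cell viability assay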
Description: SANGER: Inhibition of human NB10 cell growth in a cell viability assay.

[32] = system: COLO-320-HSR; assay type: functional, cell-based;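 further: growth inhibition of COLO-320-HSR cells, determined with a cell viability assay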
Description: SANGER: Inhibition of human COLO-320-HSR cell growth in a cell viability assay.

[33] = system: SK-N-FI; assay type: functional, cell-based;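 further: cell viability assay measuring growth inhibition of human SK-N-FI cells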
Description: SANGER: Inhibition of human SK-N-FI cell growth in a cell viability assay.

[34] = system: A101D; assay type: functional, cell-based;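 further: growth inhibition of the cell line, measured with a viability assay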
Description: SANGER: Inhibition of human A101D cell growth in a cell viability assay.

[35] = system: SK-NEP-1; assay type: functional, cell-based;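 further: growth inhibition of human SK-NEP-1 cells, read out by a cell viability assay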
Description: SANGER: Inhibition of human SK-NEP-1 cell growth in a cell viability assay.

[36] = system: SF-539; assay type: functional, cell-based;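 further: Read-out is a cell viability assay, with IC50 reflecting inhibition of cell growth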
Description: SANGER: Inhibition of human SF539 cell growth in a cell viability assay.

[37] = system: RKO; assay type: functional, cell-based;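 further: growth inhibition of human RKO cells, read out with a cell viability assay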
Description: SANGER: Inhibition of human RKO cell growth in a cell viability assay.

[38] = system: EW-1; assay type: functional, cell-based;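 further: growth inhibition of the human EW-1 cell line, read out by a cell viability assay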
Description: SANGER: Inhibition of human EW-1 cell growth in a cell viability assay.

[39] = system: NCI-H1304; assay type: functional, cell-based;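 further: growth inhibition of the cancer cell line, measured in a cell viability assay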
Description: SANGER: Inhibition of human NCI-H1304 cell growth in a cell viability assay.

[40] = system: L-363; assay type: functional, cell-based
Description: SANGER: Inhibition of human L-363 cell growth in a cell viability assay.

[41] = system: U-87 MG; assay type: functional, cell-based, U-87MG ATCC;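 further: growth inhibition of the cells measured with a viability assay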
Description: SANGER: Inhibition of human U-87-MG cell growth in a cell viability assay.

[42] = system: OVCAR-4; assay type: functional, cell-based;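 further: growth inhibition of human OVCAR-4 cells, measured with a cell viability assay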
Description: SANGER: Inhibition of human OVCAR-4 cell growth in a cell viability assay.

[43] = system: DMS-114; assay type: functional, cell-based
[44] = system: EW-13; assay type: functional, cell-based;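 further: growth inhibition of EW-13 cells, read out with a cell viability assay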
Description: SANGER: Inhibition of human EW-13 cell growth in a cell viability assay.

[45] = system: IA-LM; assay type: functional, cell-based;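 further: cell viability assay measuring growth inhibition of human IA-LM cells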
Description: SANGER: Inhibition of human IA-LM cell growth in a cell viability assay.

[46] = system: DOHH-2; assay type: functional, cell-based;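 further: growth inhibition of human DOHH-2 cells, read out with a cell viability assay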
Description: SANGER: Inhibition of human DOHH-2 cell growth in a cell viability assay.

[47] = system: MZ2-MEL; assay type: functional, cell-based;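 further: growth inhibition of MZ2-MEL cells read out with a cell viability assay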
Description: SANGER: Inhibition of human MZ2-MEL cell growth in a cell viability assay.

[48] = system: GI-1; assay type: functional, cell-based;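 further: growth inhibition of human GI-1 cells, measured with a cell viability readout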
Description: SANGER: Inhibition of human GI-1 cell growth in a cell viability assay.

[49] = system: MZ1-PC; assay type: functional, cell-based;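 further: cell viability assay measuring growth inhibition of human MZ1-PC cells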
Description: SANGER: Inhibition of human MZ1-PC cell growth in a cell viability assay.

[50] = system: MZ7-mel; assay type: functional, cell-based;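 further: growth inhibition of human MZ7-mel cells, measured by a cell viability assay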
Description: SANGER: Inhibition of human MZ7-mel cell growth in a cell viability assay.

[51] = system: MMAC-SF; assay type: functional, cell-based;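 further: growth inhibition of human MMAC-SF cells, read out with a cell viability assay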
Description: SANGER: Inhibition of human MMAC-SF cell growth in a cell viability assay.

[52] = system: EW-18; assay type: functional, cell-based;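 further: growth inhibition of EW-18 cells, read out by a cell viability assay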
Description: SANGER: Inhibition of human EW-18 cell growth in a cell viability assay.

[53] = system: JVM-3; assay type: functional, cell-based;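 further: growth inhibition of human JVM-3 cells, read out with a cell viability assay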
Description: SANGER: Inhibition of human JVM-3 cell growth in a cell viability assay.

[54] = system: NCI-H526; assay type: functional, cell-based;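 further: growth inhibition of the human NCI-H526 cell line, measured by a cell viability assay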
Description: SANGER: Inhibition of human NCI-H526 cell growth in a cell viability assay.

[55] = system: SJSA-1; assay type: functional, cell-based
Description: SANGER: Inhibition of human SJSA-1 cell growth in a cell viability assay.

[56] = system: ATN-1; assay type: functional, cell-based
Description: SANGER: Inhibition of human ATN-1 cell growth in a cell viability assay.

[57] = system: BB30-HNC; assay type: functional, cell-based
Description: SANGER: Inhibition of human BB30-HNC cell growth in a cell viability assay.

[58] = system: DEL; assay type: functional, cell-based
Description: SANGER: Inhibition of human DEL cell growth in a cell viability assay.

[59] = system: EKVX; assay type: functional, cell-based
Description: SANGER: Inhibition of human EKVX cell growth in a cell viability assay.

[60] = system: SK-MEL-1; assay type: functional, cell-based
Description: SANGER: Inhibition of human SK-MEL-1 cell growth in a cell viability assay.

[61] = system: KP-N-YS; assay type: functional, cell-based
Description: SANGER: Inhibition of human KP-N-YS cell growth in a cell viability assay.

[62] = system: NCI-H1581; assay type: functional, cell-based
Description: SANGER: Inhibition of human NCI-H1581 cell growth in a cell viability assay.

[63] = system: NCI-H1395; assay type: functional, cell-based
Description: SANGER: Inhibition of human NCI-H1395 cell growth in a cell viability assay.

[64] = system: Mo; assay type: functional, cell-based
Description: SANGER: Inhibition of human Mo-T cell growth in a cell viability assay.

[65] = system: HDLM-2; assay type: functional, cell-based
Description: SANGER: Inhibition of human HDLM-2 cell growth in a cell viability assay.

[66] = system: KARPAS-45; assay type: functional, cell-based
Description: SANGER: Inhibition of human KARPAS-45 cell growth in a cell viability assay.

CCNc1cc(N[C@H]2CC[C@@H](O)CC2)nc(Nc2ccc3c(ccn3Cc3ccccc3)c2)n1
IC50 [1]: > 5.12 µM
IC50 [2]: > 5.12 µM
IC50 [3]: > 5.12 µM
IC50 [4]: > 5.12 µM
IC50 [5]: > 5.12 µM
IC50 [6]: > 5.12 µM
IC50 [7]: > 5.12 µM
IC50 [8]: > 5.12 µM
IC50 [9]: > 5.12 µM
IC50 [10]: > 5.12 µM
IC50 [11]: > 5.12 µM
IC50 [12]: > 5.12 µM
IC50 [13]: > 5.12 µM
IC50 [14]: > 5.12 µM
IC50 [15]: 4.39 µM
IC50 [16]: > 5.12 µM
IC50 [17]: > 5.12 µM
IC50 [18]: > 5.12 µM
IC50 [19]: > 5.12 µM
IC50 [20]: > 5.12 µM
IC50 [21]: > 5.12 µM
IC50 [22]: > 5.12 µM
IC50 [23]: > 5.12 µM
IC50 [24]: > 5.12 µM
IC50 [25]: > 5.12 µM
IC50 [26]: > 5.12 µM
IC50 [27]: > 5.12 µM
IC50 [28]: > 5.12 µM
IC50 [29]: > 5.12 µM
IC50 [30]: > 5.12 µM
IC50 [31]: > 5.12 µM
IC50 [32]: > 5.12 µM
IC50 [33]: > 5.12 µM
IC50 [34]: > 5.12 µM
IC50 [35]: > 5.12 µM
IC50 [36]: > 5.12 µM
IC50 [37]: 4.72 µM
IC50 [38]: > 5.12 µM
IC50 [39]: > 5.12 µM
IC50 [40]: > 5.12 µM
IC50 [41]: > 5.12 µM
IC50 [42]: > 5.12 µM
IC50 [43]: > 5.12 µM
IC50 [44]: > 5.12 µM
IC50 [45]: > 5.12 µM
IC50 [46]: 3.46 µM
IC50 [47]: > 5.12 µM
IC50 [48]: 2.95 µM
IC50 [49]: > 5.12 µM
IC50 [50]: > 5.12 µM
IC50 [51]: > 5.12 µM
IC50 [52]: > 5.12 µM
IC50 [53]: > 5.12 µM
IC50 [54]: > 5.12 µM
IC50 [55]: > 5.12 µM
IC50 [56]: > 5.12 µM
IC50 [57]: 4.6 µM
IC50 [58]: > 5.12 µM
IC50 [59]: > 5.12 µM
IC50 [60]: > 5.12 µM
IC50 [61]: > 5.12 µM
IC50 [62]: > 5.12 µM
IC50 [63]: > 5.12 µM
IC50 [64]: > 5.12 µM
IC50 [65]: > 5.12 µM
IC50 [66]: > 5.12 µM

— ChEMBL document CHEMBL1201861, “Genomics of Drug Sensitity in Cancer screening data, Wellcome Trust Sanger Institute”
